Data: ChEMBL document CHEMBL1795224, “Synthesis, in vitro antioxidant, anthelmintic and molecular docking studies of novel dichloro substituted benzoxazole-triazolo-thione derivatives” (2011)
Calls of active or inactive are those of the source. No cut-off for these calls is given here.

Key:
Format in all cases: functional
[1] = Antioxidant activity assessed as potassium ferric cyanide ion reducing power at 50 to 100 ug after 20 mins
[2] = system: Radical scavenging activity; assay: Antioxidant activity assessed as DPPH free radical scavenging activity at 20 ug/4ml after 30 mins
Metaphire posthuma [3] = assay: Anthelmintic activity against Pheretima posthuma assessed as time taken for complete paralysis
Metaphire posthuma [4] = assay: Anthelmintic activity against Pheretima posthuma assessed as death time
Metaphire posthuma [5] = assay: Anthelmintic activity against Pheretima posthuma assessed as time taken for complete paralysis at 1 %
Metaphire posthuma [6] = assay: Anthelmintic activity against Pheretima posthuma assessed as time taken for complete paralysis at 2 %
Metaphire posthuma [7] = assay: Anthelmintic activity against Pheretima posthuma assessed as time taken for complete paralysis at 3 %
Metaphire posthuma [8] = assay: Anthelmintic activity against Pheretima posthuma assessed as death time at 1 %
Metaphire posthuma [9] = assay: Anthelmintic activity against Pheretima posthuma assessed as death time at 2 %
Metaphire posthuma [10] = assay: Anthelmintic activity against Pheretima posthuma assessed as death time at 3 %
[11] = Antioxidant activity assessed as ascorbic acid equivalent antioxidant capacity at 50 to 100 ug after 90 mins by phosphomolybdenum method

Row | Compound | Activity [1] | Activity [2] [%] | Activity (Metaphire posthuma [3]) | Time (Metaphire posthuma [4]) [min] | Time (Metaphire posthuma [5]) [min] | Time (Metaphire posthuma [6]) [min] | Activity (Metaphire posthuma [7]) | Time (Metaphire posthuma [8]) [min] | Time (Metaphire posthuma [9]) [min] | Time (Metaphire posthuma [10]) [min] | Activity [11]
1 | CCOC(=O)CSc1nc2cc(Cl)cc(Cl)c2o1 | inactive | 9.49 | Dose-dependent effect | 6.61 | 5.87 | 5.28 | Dose-dependent effect | 7.23 | 6.37 | 5.75 | 
2 | Sc1nc2cc(Cl)cc(Cl)c2o1 | inactive | 32.1 | Dose-dependent effect | 8.22 | 7.27 | 3.2 | Dose-dependent effect | 9.05 | 7.83 | 5.95 | 
3 | Cc1cc(C(C)(C)C)c(O)c(C(C)(C)C)c1 |  | 16.2 |  |  |  |  |  |  |  |  | 
4 | CCCSc1ccc2[nH]c(NC(=O)OC)nc2c1 [ALBENDAZOLE] |  |  |  | 5.37 |  |  |  | 7.2 |  |  | 
5 | S=c1[nH]nc2oc3c(Cl)cc(Cl)cc3n12 | Active | 74.8 | Dose-dependent effect | 5.48 | 4.29 | 3.82 | Dose-dependent effect | 6.48 | 5.49 | 4.12 | Active
6 | NNc1nc2cc(Cl)cc(Cl)c2o1 | Active | 81.5 | Dose-dependent effect | 4.42 | 3.57 | 3.08 | Dose-dependent effect | 4.77 | 4.22 | 3.23 | Active
7 | CCOC(=O)CSc1nnc2oc3c(Cl)cc(Cl)cc3n12 | Active | 65.7 | Dose-dependent effect | 5.92 | 4.74 | 4 | Dose-dependent effect | 6.13 | 5.95 | 4.85 | Active
8 | O=[N+]([O-])c1ccc(NCn2nc3oc4c(Cl)cc(Cl)cc4n3c2=S)cc1 | Active | 18 | Dose-dependent effect | 7.95 | 6.58 | 5.97 | Dose-dependent effect | 8.33 | 7.07 | 6.64 | Active
